# Results published in ChEMBL document CHEMBL1201862, “PubChem BioAssay data set” (2004).
# Activity calls are given as the source filed them.
# Key:
# Bcl-2-like protein 1 = Bcl-2-like protein 1 (Homo sapiens, UniProt Q07817); assay: blockers of BCLXL peptide binding – biochemical, fluorescence polarization, 1536-well, selectivity assay for MCL1 inhibitor project, dose response (AID 2218)
# [1] = target: Induced myeloid leukemia cell differentiation protein Mcl-1 (Homo sapiens, UniProt Q07820); assay: blockers of MCL1 binding to BIM peptide – biochemical, fluorescence polarization, BIM-BH3 peptide, 1536-well, dose response (AID 2217)
# [2] = target: T1, Tyrosine-protein phosphatase non-receptor type 7 (Homo sapiens, UniProt P35236); assay: HePTP tyrosine phosphatase activity blockers – biochemical, absorbance, leukemia target, primary screen (AID 521); format: functional
# T1 sequence (P35236 whole entry): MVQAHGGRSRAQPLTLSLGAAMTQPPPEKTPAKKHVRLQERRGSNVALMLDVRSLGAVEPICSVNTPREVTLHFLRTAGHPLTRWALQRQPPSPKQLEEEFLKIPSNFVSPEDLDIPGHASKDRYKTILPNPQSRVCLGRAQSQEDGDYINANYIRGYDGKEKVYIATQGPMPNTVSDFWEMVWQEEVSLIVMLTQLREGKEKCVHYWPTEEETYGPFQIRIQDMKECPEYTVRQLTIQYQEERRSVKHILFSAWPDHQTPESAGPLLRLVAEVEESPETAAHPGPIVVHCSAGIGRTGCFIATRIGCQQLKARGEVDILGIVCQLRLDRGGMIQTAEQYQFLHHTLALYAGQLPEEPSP
# [3] = cytotoxicity toward HT-29 cells – cell-based, CellTiter-Glo luminescence, IC50, dose response (AID 1117330); format: functional
# [4] = CellTiter-Glo luminescence survival assay, SW480 colon tumor line, concentration-response curve, half-maximal inhibitory concentration (AID 1117338); format: functional
# [5] = SNU-C1 cell viability reduction, dose response, CellTiter-Glo luminescence (AID 1117323); format: functional, cell-based
# [6] = Reduced DLD-1 viability, concentration-response, CellTiter-Glo luminescence (AID 1117352); format: functional
# [7] = RKO cell viability reduction, dose response, CellTiter-Glo luminescence (AID 1117322); format: functional
# [8] = rise of 4N DNA cells, HeLa – IC50, dose response (AID 1117351); format: functional, cell-based
# [9] = cytotoxicity toward Colo320 cells – cell-based, CellTiter-Glo luminescence, IC50, dose response (AID 1117334); format: functional; conditions: COLO 320
# [10] = rise of 2N DNA cells, HeLa – IC50, dose response (AID 1117349); format: functional, cell-based
# [11] = target: T2, Carboxy-terminal domain RNA polymerase II polypeptide A small phosphatase 1 (Homo sapiens, UniProt Q9GZU7); assay: CTDSP1 inhibitors, concentration-response, biochemical, absorbance readout, ultra-high-throughput screen actives (AID 540297); format: functional
# T2 sequence (Q9GZU7 whole entry): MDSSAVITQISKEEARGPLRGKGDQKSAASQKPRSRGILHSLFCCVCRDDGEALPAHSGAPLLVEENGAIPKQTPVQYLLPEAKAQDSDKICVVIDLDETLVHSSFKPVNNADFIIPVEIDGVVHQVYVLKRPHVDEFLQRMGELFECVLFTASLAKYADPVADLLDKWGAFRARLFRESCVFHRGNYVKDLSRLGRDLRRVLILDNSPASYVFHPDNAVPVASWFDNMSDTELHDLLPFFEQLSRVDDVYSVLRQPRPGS
# Estrogen receptor beta [12] = target: T3, Estrogen receptor beta (Homo sapiens, UniProt Q92731);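 note: recombinant ER-beta bound to coactivator SRC1 peptide in presence of estradiol agonist; inhibitors block coactivator peptide binding and lower the FRET signal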
# Estrogen receptor beta [13] = target: T3, Estrogen receptor beta; assay: blockers of SRC-3 recruitment to ERβ – biochemical, ELISA, streptavidin-HRP readout, orthogonal assay, confirmation (AID 1060)
# H4 = assay: Luminescence Cell-Based Dose Response HTS to Identify Activators of 5'UTR Stem-Loop Driven Prion Protein mRNA Translation in H4 Neuroglioblastoma Cells. [Related pubchem assays: 1829 (Project Summary), 1814 (Primary HTS)]; format: functional; conditions: Homo sapiens
# [14] = Luminescence Cell-Based Dose Confirmation HTS to Identify Activators of 5'UTR Stem-Loop Driven Alpha-Synuclein mRNA Translation in H4 Neuroglioblastoma Cells. [Related pubchem assays: 1829 (Project Summary), 1814 (Primary HTS)]; format: functional
# [15] = HIV-1 Vif–A3G interaction blockers – biochemical, TR-FRET, GST-Vif 1-94, biotin-A3G peptide, dose response retest, primary screen (AID 1117319); format: functional;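 note: TR-FRET signal of purified GST-Vif binding a biotinylated A3G peptide; inhibitors lower the FRET signal by blocking Vif and A3G binding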
# [16] = Luminescence Cell-Based Dose Response HTS to Identify Activators of Luciferase Translation or Activity in H4 […] Cells. [Related pubchem assays: 1829 (Project Summary), 1814 (Primary HTS)]; format: functional
# [17] = Luminescence Cell-Based Dose Response to Identify Activators of Luciferase Translation or Activity in H4-C Neuroglioblastoma Cells. [Related pubchem assays: 1829 (Project Summary), 1814 (Primary HTS)]; format: functional
# [18] = Luminescence Cell-Based Dose Confirmation to Identify Activators of 5'UTR Stem-Loop Driven Alpha-Synuclein mRNA Translation in H4 Neuroglioblastoma Cells. [Related pubchem assays: 1829 (Project Summary), 1814 (Primary HTS)]; format: functional
# [19] = Luminescence Cell-Based Dose Response to Identify Activators of 5'UTR Stem-Loop Driven Prion Protein mRNA Translation in H4-C Neuroglioblastoma Cells. [Related pubchem assays: 1829 (Project Summary), 1814 (Primary HTS)]; format: functional
# [20] = viability loss of HPDE-C7K cells – cell-based, fluorescence, HTS, primary screen (AID 431); format: functional; conditions: Homo sapiens
# [21] = viability of uninfected HEp-2 cells – cell-based, HTS, cytotoxicity control for RSV inhibitor project, dose response (AID 2410); format: functional; conditions: human respiratory syncytial virus
# [22] = target: T4, DNA repair protein RAD52 homolog (Homo sapiens, UniProt P43351); format: functional, biochemical
# T4 sequence (P43351 whole entry): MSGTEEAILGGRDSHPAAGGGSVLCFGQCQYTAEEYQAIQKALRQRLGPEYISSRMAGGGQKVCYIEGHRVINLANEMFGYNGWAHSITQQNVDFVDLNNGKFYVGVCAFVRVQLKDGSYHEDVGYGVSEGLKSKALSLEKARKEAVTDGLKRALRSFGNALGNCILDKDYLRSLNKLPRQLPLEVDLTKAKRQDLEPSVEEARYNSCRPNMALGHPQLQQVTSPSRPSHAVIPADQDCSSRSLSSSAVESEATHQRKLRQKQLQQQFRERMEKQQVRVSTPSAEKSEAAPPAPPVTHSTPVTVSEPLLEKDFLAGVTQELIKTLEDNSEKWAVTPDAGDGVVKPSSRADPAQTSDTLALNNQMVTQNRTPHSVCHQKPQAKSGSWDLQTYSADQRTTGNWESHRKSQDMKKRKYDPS
# [23] = viability of HCT116 lacking mutant beta-catenin – cell-based, human colon tumor, dose response (AID 1045); format: functional;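 note: HCT116 colon tumor cells with beta catenin knocked out; cells exposed to compound for 60 hours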
# [24] = viability of PTEN-deleted HCT116 cells – cell-based, HCT116 PTEN knockout, dose response (AID 1047); format: functional;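 note: HCT116 colon tumor cells with PTEN knocked out; cells exposed to compound for 60 hours before readout; potency for loss of cell viability measured by luminescence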
# [25] = HPDE-C7 pancreatic duct cell viability loss – fluorescence, HTS (AID 430); format: functional, cell-based; conditions: Homo sapiens
# [26] = target: Dual specificity tyrosine-phosphorylation-regulated kinase 1A (Rattus norvegicus, UniProt Q63470); format: biochemical, Homo sapiens
# [27] = target: 26S proteasome non-ATPase regulatory subunit 14 (Homo sapiens, UniProt O00487); assay: inhibition of proteasome subunit RPN11 – biochemical, fluorescence polarization, uHTS hits, confirmation (AID 602368); format: functional
# [28] = viability loss in THP-1 monocytes – THP-1 cells, cytotoxicity control for Vif-APOBEC3G degradation inhibitor project, dose response (AID 1117359); format: functional; conditions: THP-1
# [29] = target: T5, Zinc finger protein mex-5 (Caenorhabditis elegans, UniProt Q9XUB2); assay: potency of MEX-5 RNA-binding blockers – biochemical, C. elegans, fluorescence polarization, dose response (AID 1960)
# T5 sequence (Q9XUB2 whole entry): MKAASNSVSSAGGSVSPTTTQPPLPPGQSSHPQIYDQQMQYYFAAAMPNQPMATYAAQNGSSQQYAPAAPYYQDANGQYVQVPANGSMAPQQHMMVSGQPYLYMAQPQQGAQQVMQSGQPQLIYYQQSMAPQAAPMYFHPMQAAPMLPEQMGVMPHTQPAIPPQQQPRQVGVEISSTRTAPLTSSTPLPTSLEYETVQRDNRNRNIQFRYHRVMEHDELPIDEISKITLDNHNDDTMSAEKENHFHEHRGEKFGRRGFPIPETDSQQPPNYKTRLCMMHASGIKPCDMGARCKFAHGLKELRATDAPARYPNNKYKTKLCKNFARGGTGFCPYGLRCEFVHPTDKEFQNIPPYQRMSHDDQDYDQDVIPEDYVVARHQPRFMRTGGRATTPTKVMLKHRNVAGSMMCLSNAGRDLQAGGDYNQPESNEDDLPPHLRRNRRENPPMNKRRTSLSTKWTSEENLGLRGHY
# [30] = Luminescence Cell-Based Dose Retest to Confirm Inhibitors of Cancer Stem Cells. [Related pubchem assays (depositor defined):AID2717, AID2721]; format: functional; conditions: Homo sapiens
# Prothrombin = Prothrombin (Bos taurus, UniProt P00735); assay: thrombin protease inhibitors – biochemical, fluorescence polarization, uHTS hits, dose response (AID 602369); format: functional
# [31] = target: 72 kDa type IV collagenase (Homo sapiens, UniProt P08253); assay: Dose Response validation of uHTS RPN11 inhibitor hits using a MMP-2 Fluorescence assay.; format: functional
# [32] = target: T6, RNA-binding protein pos-1 (Caenorhabditis elegans, UniProt G5EF15); assay: disruptors of C. elegans POS-1 RNA interaction – biochemical, fluorescence polarization, dose response (AID 1964);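 note: purified POS-1 fused to maltose binding protein made in E. coli; potency of compounds blocking POS-1 binding to fluorescent RNA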
# T6 sequence (G5EF15 whole entry): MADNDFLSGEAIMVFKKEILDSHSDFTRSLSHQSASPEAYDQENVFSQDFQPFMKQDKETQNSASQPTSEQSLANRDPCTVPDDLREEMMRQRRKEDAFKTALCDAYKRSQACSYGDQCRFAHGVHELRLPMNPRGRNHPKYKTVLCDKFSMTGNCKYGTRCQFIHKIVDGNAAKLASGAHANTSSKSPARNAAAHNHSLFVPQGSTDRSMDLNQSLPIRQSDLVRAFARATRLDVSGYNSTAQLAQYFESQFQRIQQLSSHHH
# [33] = viability loss of HMLE_sh_eGFP cells – cell-based, luminescence, counter-screen for HMLE_sh_ECad selective toxicity project, dose response (AID 463074); format: functional, Homo sapiens;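 note: HMLE human mammary epithelial cells expressing control shRNA against eGFP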
# T3 sequence (Q92731 whole entry): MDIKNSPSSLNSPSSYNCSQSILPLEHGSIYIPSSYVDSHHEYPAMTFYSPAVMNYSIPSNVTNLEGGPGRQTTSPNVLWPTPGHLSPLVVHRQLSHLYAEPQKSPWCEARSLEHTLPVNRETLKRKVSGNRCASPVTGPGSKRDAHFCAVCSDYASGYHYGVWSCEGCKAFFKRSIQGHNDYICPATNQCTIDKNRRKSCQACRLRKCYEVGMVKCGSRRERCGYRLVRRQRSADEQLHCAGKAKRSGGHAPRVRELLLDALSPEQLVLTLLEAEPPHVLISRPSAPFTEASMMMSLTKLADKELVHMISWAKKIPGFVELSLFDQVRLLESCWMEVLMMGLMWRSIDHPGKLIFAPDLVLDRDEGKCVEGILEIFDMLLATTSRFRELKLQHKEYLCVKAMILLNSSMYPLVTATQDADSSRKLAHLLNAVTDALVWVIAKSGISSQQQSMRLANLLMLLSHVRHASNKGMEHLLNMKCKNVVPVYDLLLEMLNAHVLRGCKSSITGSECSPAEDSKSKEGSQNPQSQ
# Chain of 72 kDa type IV collagenase (P08253 whole entry, the tested form may be a part): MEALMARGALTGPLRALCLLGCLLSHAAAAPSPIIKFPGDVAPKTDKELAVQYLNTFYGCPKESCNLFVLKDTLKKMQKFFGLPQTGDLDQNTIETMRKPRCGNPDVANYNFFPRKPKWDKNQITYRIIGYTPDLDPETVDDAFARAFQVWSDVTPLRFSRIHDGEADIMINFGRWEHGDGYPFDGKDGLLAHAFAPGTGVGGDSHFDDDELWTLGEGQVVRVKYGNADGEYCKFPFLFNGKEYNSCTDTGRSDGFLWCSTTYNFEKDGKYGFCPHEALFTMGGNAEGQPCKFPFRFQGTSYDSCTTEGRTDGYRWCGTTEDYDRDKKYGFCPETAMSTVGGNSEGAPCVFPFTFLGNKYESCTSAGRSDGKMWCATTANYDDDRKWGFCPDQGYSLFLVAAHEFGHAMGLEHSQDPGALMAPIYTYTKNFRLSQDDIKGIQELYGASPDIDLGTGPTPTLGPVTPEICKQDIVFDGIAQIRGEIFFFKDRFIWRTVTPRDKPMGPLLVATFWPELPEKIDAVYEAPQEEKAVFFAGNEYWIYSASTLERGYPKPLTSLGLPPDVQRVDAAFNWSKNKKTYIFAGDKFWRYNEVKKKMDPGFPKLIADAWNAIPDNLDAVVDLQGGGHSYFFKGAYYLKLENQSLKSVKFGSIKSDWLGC
# Chain of 26S proteasome non-ATPase regulatory subunit 14 (O00487 whole entry): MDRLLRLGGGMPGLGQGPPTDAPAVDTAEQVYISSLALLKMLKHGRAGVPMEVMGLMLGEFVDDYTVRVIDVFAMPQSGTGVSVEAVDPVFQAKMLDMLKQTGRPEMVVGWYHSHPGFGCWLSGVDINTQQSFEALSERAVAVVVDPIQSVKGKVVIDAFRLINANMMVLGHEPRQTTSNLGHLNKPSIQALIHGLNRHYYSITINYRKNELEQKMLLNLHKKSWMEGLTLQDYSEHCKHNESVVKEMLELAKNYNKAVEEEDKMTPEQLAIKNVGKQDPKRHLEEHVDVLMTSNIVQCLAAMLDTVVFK
# Chain of Bcl-2-like protein 1 (Q07817 whole entry): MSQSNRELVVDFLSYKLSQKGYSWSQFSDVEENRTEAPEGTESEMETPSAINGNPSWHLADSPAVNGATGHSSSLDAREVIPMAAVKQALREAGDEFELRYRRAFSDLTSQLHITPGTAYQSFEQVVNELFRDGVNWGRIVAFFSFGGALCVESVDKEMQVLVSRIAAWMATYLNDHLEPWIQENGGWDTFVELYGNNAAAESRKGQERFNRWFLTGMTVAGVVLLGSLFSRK
# Chain of Induced myeloid leukemia cell differentiation protein Mcl-1 (Q07820 whole entry): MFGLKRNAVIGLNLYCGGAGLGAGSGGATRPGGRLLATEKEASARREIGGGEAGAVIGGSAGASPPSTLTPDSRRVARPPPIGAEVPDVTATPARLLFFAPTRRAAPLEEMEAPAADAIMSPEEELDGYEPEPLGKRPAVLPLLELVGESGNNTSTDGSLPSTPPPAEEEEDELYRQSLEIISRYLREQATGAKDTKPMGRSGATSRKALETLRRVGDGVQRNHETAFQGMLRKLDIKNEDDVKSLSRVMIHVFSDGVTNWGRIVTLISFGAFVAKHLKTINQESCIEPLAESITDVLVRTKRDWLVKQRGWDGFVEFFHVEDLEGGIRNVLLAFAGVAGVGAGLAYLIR
compound,measurement,setting,value
O=C(Cn1cnc2sc(-c3ccccc3)cc2c1=O)NCc1ccco1,IC50,Bcl-2-like protein 1,> 109 µM (not active)
same,IC50,[1],5.16 µM (active)
COc1ccccc1N1CCN(S(=O)(=O)c2c[nH]cn2)CC1,IC50,[2],> 100 µM (not active)
O=c1[nH]cc(F)c(=O)[nH]1 [FLUOROURACIL],IC50,[3],> 20 µM (inactive)
same,IC50,[4],> 20 µM (inactive)
same,IC50,[5],> 20 µM (inactive)
same,IC50,[6],> 20 µM (inactive)
same,IC50,[7],> 20 µM (inactive)
same,IC50,[8],> 10 µM (inactive)
same,IC50,[9],> 20 µM (inactive)
same,IC50,[10],> 10 µM (inactive)
O=C(Nc1sc2c(c1C(=O)O)CCC2)c1ccccc1,IC50,[11],12.1 µM (active)
same,IC50,Estrogen receptor beta [12],6.88 µM (active)
same,IC50,Estrogen receptor beta [13],> 109 µM (not active)
CCCn1c(O)nnc1Sc1nnnn1-c1ccccc1,EC50,H4,> 120 µM (not active)
same,EC50,[14],40.1 µM (active)
same,IC50,[15],> 100 µM (active)
same,EC50,[16],6.75 µM (active)
O=S(=O)(Nc1ccc(N2CCOCC2)cc1)c1ccccc1,IC50,[15],> 100 µM (active)
CC(C)(C)OC(=O)c1c(N)n(Cc2ccco2)c2nc3ccccc3nc12,IC50,[2],> 100 µM (not active)
COc1cc(NC(=O)c2cc3nc(C)cc(C)n3n2)c(OC)cc1Cl,EC50,H4,< 0.1 µM (active)
same,EC50,[17],0.323 µM (active)
same,EC50,[18],0.392 µM (active)
same,EC50,[16],0.278 µM (active)
same,EC50,[19],0.389 µM (active)
CCOC(=O)c1s/c(=N\C(=O)/C=C/c2cccs2)n(C)c1C,EC50,H4,1.08 µM (active)
same,EC50,[17],> 12 µM (not active)
same,EC50,[18],0.315 µM (active)
same,EC50,[16],< 0.1 µM (inconclusive)
same,EC50,[19],2.23 µM (active)
CN1CCN(c2cc3c(c4c2[nH]c2ccccc24)C(=O)CC(C)(C)C3)CC1,EC50,[20],12.9 µM (active)
same,CC50,[21],15.6 µM (active)
same,AC50,[22],9.48 µM (active)
same,EC50,[23],10.4 µM (active)
same,EC50,[24],11.4 µM (active)
same,EC50,[25],13.2 µM (active)
same,AC50,[26],7.77 µM (active)
CC(C)Cc1ccc(/C=C/C(=O)N2CCOCC2)cc1,EC50,H4,0.843 µM (active)
same,EC50,[17],0.374 µM (active)
same,EC50,[18],0.25 µM (active)
same,EC50,[16],< 0.1 µM (inconclusive)
same,EC50,[19],0.682 µM (active)
CCOc1ccccc1N1C(=O)NC(=O)/C(=C\Nc2ccc(N(CC)CC)cc2)C1=O,IC50,[27],18.3 µM (active)
same,CC50,[28],26 µM (active)
same,EC50,[29],> 300 µM (inconclusive)
same,AC50,[30],40.9 µM (active)
same,IC50,Prothrombin,13.4 µM (active)
same,IC50,[31],> 100 µM (inactive)
same,IC50,[15],> 57.5 µM (active)
same,EC50,[32],> 300 µM (not active)
same,AC50,[33],51 µM (active)
